The text below walks through data of patent publication US10869931B2, “Polyethylene glycol-modified angiogenesis inhibitor HM-1 and application thereof” (NANJING ANJI BIOLOGICAL TECHNOLOGY CO.,LTD, priority 2016, dated 2020).

Marks after values point to notes of the source that are not given here. Where no end group is shown, it is not given here.

Assay [1] concerns Pancreatic cancer tumor cells. The assay is described as follows: MTT proliferation inhibition, pancreatic cancer cells. It is filed as cell-based, human. More on the design: concentration or dose not given beside the values. The note with it: 48 h. Here is the method:
(§1) The activity of mPEG-HM-1 to inhibit the growth of various tumor cells was examined by MTT assay. The tumor cells were cultured to a concentration of 90% or more in a 37° C., 5% CO2 incubator and collected by trypsinization. The cells were resuspended in the culture medium and counted under a microscope to adjust the cell concentration to 2×10^4 cells/mL, the cell suspension was inoculated into a 96-well plate at 100 μL/well and incubated overnight at 37° C. in a 5% CO2 incubator. mPEG-HM-1 was diluted with the culture solution to each predetermined concentration. Docetaxel is diluted to the final concentration with the culture medium. After the cells were fully attached, each dilution was added to a 96-well plate (100 μL/well). The mPEG-HM-1 dilution was added as a drug-administered group, and docetaxel was added as a positive control group, and a culture solution without any drug was used as a negative control group. Incubate for 48 h at 37° C. in a 5% CO2 incubator. 5 mg/mL of MTT was added to a 96-well plate at 20 μL per well, and incubation was continued for 4 hours. The medium was aspirated, dissolved in 150 μL of DMSO per well, and gently mixed by shaking for 10 min. The absorbance was measured at a measurement wavelength of 570 nm and a reference wavelength of 630 nm using a microplate reader, and the rate of growth inhibition (proliferation inhibition, PI) was calculated. The formula is as follows: PI (%)=1−administration group/negative group
(§2) The test was repeated 3 times independently, and the results obtained by the test were expressed as mean±SD, and the test results are shown in Table 15 to Table 18.

Assay [2] has as its system choroidal neovascularization in BN rats. The assay is described as follows: Laser-induced choroidal neovascularization in BN rats (FFA). It counts as in vivo, rat. How it is done: 6-8 weeks old male BN rats were anesthetized with 846 compound anesthetic 0.5 mL/kg administered intraperitoneally. The eye drops of compound tropamide eyes were used 5 minutes before laser photocoagulation, and the pupils of both eyes were fully scattered. Fix animals, with the aid of −53.00 D contact lens, around the optic disc and along the same distance from the optic disc 2PD, the laser beam photocoagulation were performed to make a total of 8 photo-condensation spots, with laser wavelength of 647.1 nm, power of 350 mW, photocoagulation spot diameter and time were 50 μm and 0.05 s, respectively. Immediately after photocoagulation, fundus photography was performed. FFA, histopathology and transmission electron microscopy were performed at 3, 7, 14, 21, and 28 days after photocoagulation.
It was confirmed by fundus photography and FFA examination that the fluorescein leakage of photocoagulation peaked on the 21st day after photocoagulation, and histopathological examination was performed at the same time. […] A large number of neovascular vessels were seen, and red blood cells were visible in the lumen. Microscopically, capillary cells in the choroidal melanocytes were cohesively altered and endothelial cells aggregated.
Rats that were successfully modeled were randomly divided into groups of 5 rats each. They were labeled as negative control group, mPEG-SC-HM-1 treatment group, mPEG2-NHS-HM-1 treatment group, mPEG-ALD-HM-1 treatment group and mPEG-bALD-HM-1 treatment group, respectively. Saline, mPEG-HM-1 (see Table 53 for dosing) was administered intravitreally, once daily for 1 week. FFA examinations were performed 3 days, 7 days, 14 days, and 28 days after administration of the modified peptides.

The subject of assay [3] is Breast cancer tumor cells. In words: MTT proliferation inhibition, breast cancer cells. It counts as cell-based, human. More on the design: concentration or dose not given beside the values. The note with it: 48 h. Here is the method: as §1, §2
The next assay has as its system sarcoma tumor cells. The assay is described as follows: MTT proliferation inhibition, sarcoma cells. It is filed as cell-based, human. More on the design: concentration or dose not given beside the values. The conditions noted are these: 48 h. How it is done: as §1, §2
In assay [4] the test system is collagen induced arthritis (CIA) in DBA/1 mice. The assay is described as follows: Collagen-induced mouse arthritis (CIA) model. It is filed as in vivo. The conditions noted are these: CIA DBA/1 mice; for Clinical score: maximum score 16.
The subject of another assay is Lung cancer tumor cells. In words: MTT proliferation inhibition, lung cancer cells. It is filed as cell-based, human. More on the design: concentration or dose not given beside the values. The conditions noted are these: 48 h. How it is done: as §1, §2
Assay [5] has as its system retinal neovascular clusters in OIR C57/B16 mice. In words: Retinal blood vessels in OIR mice. It is filed as in vivo, mouse. The note with it: for Neovascular clusters area: retina evaluated on day 17; for Inhibition rate: neovascular clusters area vs control, day 17. An excerpt: Establishment of the OIR model: Exposure of young mouse and their mothers to 75% hyperoxic environment from day 7 to day 12 after birth of C57/B16 mice caused rapid disappearance of capillaries in the central retina. Upon returning to the indoor air on the 12th day, the retinal blood vessels, upon exposing to hyperoxia, rapidly disappeared, causing extensive abnormal neovascularization, and the central portion of the retina remained largely avascular for a long time. After the blood vessels disappeared completely, on the 13th day, physiological saline (negative control group), mPEG-SC-HM-1, mPEG2-NHS-HM-1, mPEG-ALD10k-HM-1, and mPEG-bALD-HM-1, were administered by intravitreal injection and retinal vessels were evaluated on day 17 (to label unclosed vessels, […] of Texas Red-labeled tomato lectin was injected into the left ventricle and circulated for 5 min).

[6] abbreviates: Day 3 after administration, 200 μg intravitreally once daily for 1 week (Table 53).
[7] abbreviates: Day 3 after administration, 200 μg intravitreally once daily for 1 week (Table 53), total spots 290-296 by table.
[8] abbreviates: Day 7, 200 μg intravitreally once daily for 1 week (Table 53).
Setting [9] is: Day 7, 200 μg intravitreally once daily for 1 week (Table 53), total spots 182-188 by table.
[10] abbreviates: Day 14, 200 μg intravitreally once daily for 1 week (Table 53).
[11] abbreviates: Day 14, 200 μg intravitreally once daily for 1 week (Table 53), total spots 132-138 by table.
The mark [12] stands for this setting: Day 28, 200 μg intravitreally once daily for 1 week (Table 53).
Where [13] appears, read: Day 28, 200 μg intravitreally once daily for 1 week (Table 53), total spots 67-71 by table.
The mark [14] stands for this setting: 80 mg/kg subcutaneous from day 30 of modeling.
The mark [15] stands for this setting: 200 μg intravitreal injection on day 13.
Setting [16] is: 40 mg/kg subcutaneous from day 30 of modeling.
Setting [17] is: 20 mg/kg subcutaneous from day 30 of modeling.

In the case of “mPEG-ALD40k-Arg-Gly-Ala-Asp-Arg-Ala-Gly-Gly-Gly-Gly-Arg-Gly-Asp ({mPEG‑ALD 40 kDa}-RGADRAGGGGRGD) [mPEG-ALD40k-HM-1]”, the “rate of growth inhibition” value in assay [1] turned out to be 65.31 ± 19.81%; in assay [3], 60.17 ± 19.24%; with sarcoma tumor cells, 45.93 ± 10.77%; with Lung cancer tumor cells, 55.44 ± 16.13%. In addition, the “CNV Incidence rate” value in assay [2] (setting [6]) was 52.41%; in assay [2] (setting [8]), 50.55%; in assay [2] (setting [10]) it was 46.97%; in assay [2] (setting [12]), 42.25%. Moreover, the “leakage Spots #” value in assay [2] (setting [7]) was 152; in assay [2] (setting [9]), 92; in assay [2] (setting [11]), 62; in assay [2] (setting [13]) it was 30. The Joint swelling in assay [4] (setting [14]) is 0.77 ± 0.14 mm. Also, the “Left and right paw swelling” value in assay [4] (setting [14]) is 0.79 ± 0.12 mm. The substance further gave a Clinical score in assay [4] (setting [14]) of 8.97 ± 1.42. This substance yielded a Neovascular clusters area in assay [5] (setting [15]) of 0.106 ± 0.010 mm^2. The same substance yielded an Inhibition rate in assay [5] (200 μg intravitreal) of 52.02%**.

On to “mPEG-bALD20k-Arg-Gly-Ala-Asp-Arg-Ala-Gly-Gly-Gly-Gly-Arg-Gly-Asp ({mPEG‑bALD 20 kDa}-RGADRAGGGGRGD) [mPEG-bALD20k-HM-1]”, for which the “rate of growth inhibition” value in assay [1] was 69.54 ± 18.37%; in assay [3], 60.97 ± 16.29%; in the assay with sarcoma tumor cells, 50.91 ± 10.64%; with Lung cancer tumor cells, 65.31 ± 15.54%. The “CNV Incidence rate” value in assay [2] (Day 3 after administration, 100 μg intravitreally once daily for 1 week (Table 53)) turned out to be 51.54%; in assay [2] (Day 7, 100 μg intravitreally once daily for 1 week (Table 53)) it was 49.19%; in assay [2] (Day 14, 100 μg intravitreally once daily for 1 week (Table 53)), 45.65%; in assay [2] (Day 28, 100 μg intravitreally once daily for 1 week (Table 53)), 40.58%. For the same substance, the “leakage Spots #” value in assay [2] (Day 3 after administration, 100 μg intravitreally once daily for 1 week (Table 53), total spots 290-296 by table) is 151; in assay [2] (Day 7, 100 μg intravitreally once daily for 1 week (Table 53), total spots 182-188 by table) it was 91; in assay [2] (Day 14, 100 μg intravitreally once daily for 1 week (Table 53), total spots 132-138 by table), 63; in assay [2] (Day 28, 100 μg intravitreally once daily for 1 week (Table 53), total spots 67-71 by table), 28. The same substance came in with a Joint swelling in assay [4] (setting [16]) of 0.73 ± 0.15 mm. Moreover, the “Left and right paw swelling” value in assay [4] (setting [16]) came out at 0.75 ± 0.11 mm. In assay [4] (setting [16]), this substance came in with a Clinical score of 8.67 ± 1.32. This substance also gave a Neovascular clusters area in assay [5] (100 μg intravitreal injection on day 13) of 0.097 ± 0.011 mm^2. In assay [5] (100 μg intravitreal), this substance came in with an Inhibition rate of 56.22%**.

In the case of “mPEG2-NHS10k-Arg-Gly-Ala-Asp-Arg-Ala-Gly-Gly-Gly-Gly-Arg-Gly-Asp ({mPEG2‑NHS 10 kDa}-RGADRAGGGGRGD) [mPEG2-NHS10k-HM-1]”, the “rate of growth inhibition” value in assay [1] is listed as 50.23 ± 14.26%; in assay [3], 50.92 ± 13.97%; with sarcoma tumor cells it was 43.59 ± 12.39%; in the assay on Lung cancer tumor cells it was 45.28 ± 13.96%. Further, in assay [2] (BN rats, 28 days after administration, intravitreal once daily for 1 week), the “incidence of CNV” value is 39.71%. Besides, the “CNV Incidence rate” value in assay [2] (Day 3 after administration, 50 μg intravitreally once daily for 1 week (Table 53)) stood at 50.34%; in assay [2] (Day 7, 50 μg intravitreally once daily for 1 week (Table 53)) it was 48.35%; in assay [2] (Day 14, 50 μg intravitreally once daily for 1 week (Table 53)), 43.07%; in assay [2] (Day 28, 50 μg intravitreally once daily for 1 week (Table 53)) it was 39.71%. The “leakage Spots #” value is listed as 148 in assay [2] (Day 3 after administration, 50 μg intravitreally once daily for 1 week (Table 53), total spots 290-296 by table); 88 in assay [2] (Day 7, 50 μg intravitreally once daily for 1 week (Table 53), total spots 182-188 by table); 59 in assay [2] (Day 14, 50 μg intravitreally once daily for 1 week (Table 53), total spots 132-138 by table); 27 in assay [2] (Day 28, 50 μg intravitreally once daily for 1 week (Table 53), total spots 67-71 by table). Also, the Joint swelling in assay [4] (setting [17]) was 0.75 ± 0.15 mm. The “Left and right paw swelling” value in assay [4] (setting [17]) stood at 0.74 ± 0.14 mm. In assay [4] (setting [17]), this substance registered a Clinical score of 8.83 ± 1.32. Further, the Neovascular clusters area in assay [5] (50 μg intravitreal injection on day 13) is on record as 0.100 ± 0.006 mm^2. Also, the Inhibition rate in assay [5] (50 μg intravitreal) came out at 54.63%**. For the same substance, the “inhibition rate of retinal neovascular clusters” value in assay [5] (OIR mice, 50 μg intravitreal injection, evaluated day 17) was 54.63%.

For the substance “mPEG2-NHS40k-Arg-Gly-Ala-Asp-Arg-Ala-Gly-Gly-Gly-Gly-Arg-Gly-Asp ({mPEG2‑NHS 40 kDa}-RGADRAGGGGRGD) [mPEG2-NHS40k-HM-1]”, the “rate of growth inhibition” value in assay [1] was 51.49 ± 16.28%; in assay [3] it was 49.12 ± 16.19%; in the assay on sarcoma tumor cells, 46.46 ± 11.54%; in the assay on Lung cancer tumor cells, 49.39 ± 16.55%. The “CNV Incidence rate” value is 51.02% in assay [2] (setting [6]), 51.10% in assay [2] (setting [8]), 44.53% in assay [2] (setting [10]) and 41.18% in assay [2] (setting [12]). For the same substance, the “leakage Spots #” value in assay [2] (setting [7]) is 150; in assay [2] (setting [9]), 93; in assay [2] (setting [11]), 61; in assay [2] (setting [13]), 28. Moreover, the Joint swelling in assay [4] (setting [14]) was 0.76 ± 0.14 mm. For the same substance, the “Left and right paw swelling” value in assay [4] (setting [14]) was 0.79 ± 0.15 mm. In assay [4] (setting [14]), this substance came in with a Clinical score of 8.98 ± 1.30. In assay [5] (setting [15]), the Neovascular clusters area came to 0.120 ± 0.008 mm^2. This substance yielded an Inhibition rate in assay [5] (200 μg intravitreal) of 45.92%*.
